We go through 8 compounds from patent publication US4492698A, “Diphenylbutyl-1-acylpiperazines” (priority 1980, dated 1985).

Molecules are shown by their SMILES. Where a name gives a salt, the structure may show the parent alone. Read-outs that look alike come from different tables or passages of the source.

The test system of test [1] is male hooded Long-Evans rats. Description: spontaneous mouse-killing (muricide) by rats. The format is in vivo, rat (hooded Long-Evans). As to conditions: for ED50: Rattus norvegicus, sc. From the text:
For the purpose of detecting new psychotropic substances with antiaggressive properties, pharmacologist have used several different models. One model used, the mouse-killing (muricide) by rats (Vogel, J. R. in Industrial Pharmacology, Vol. 2, Antidepressants, Stuart, F. and Lal, H., Ed., Futura Publishing Company, 1975, p. 99), is based on an existing interspecies aggression (Karli, P., Behaviour 10, 81 (1956)). This form of aggressive behaviour which is considered to be of predatory nature, is physiologically and topographically different from other forms of aggression (O'Boyle, M., Psychol. Bull. 81, 261 (1974)). Mousekilling is a spontaneous behaviour in some rat strains e.g. male hooded Long-Evans rats.
Male hooded Long-Evans rats placed in individual cages were used. By testing a number of rats, a colony of rats was obtained that killed a mouse whenever introduced into the rats' cage, by biting the mouse through the cervical spinal cord.
Each rat was tested for mouse-killing behaviour (killing a mouse within 5 minutes) prior to each experiment, thus serving as its own positive control. For each dose level 6 positive rats were selected and the test substance was administered by subcutaneous injection. Doses were selected to form a dose-response curve and the […] (ED50, mg/kg) was calculated by means of linear regression. The rats were tested at 1, and 2 hours after being injected subcutaneously. [drawing 9]

Test [2] relates to male NMRI mice. Description: isolation-induced aggressive behaviour. The format is in vivo. As to conditions: Mus musculus, sc, read-out: ED50 (dose inhibiting aggressive behaviour among 50 percent of the pairs). The source says:
Male mice subjected to prolonged isolation develop aggressive behaviour against each other when paired (Yen, C. Y. et al., Arch. Int. Pharmacodyn. 123, 179, (1959); Valzelli, L., Adv. Pharmacol. 5, 79 (1967)). […] The clinical correlation of this test indicates tranquillizing and anxiolytic activities as well as antiaggressive properties as such (Duncan, R. L. et al., J. Med. Chem. 13, 1 (1970)).
This type of aggression is interesting because it is known that this kind of emotional behaviour might be located in limbic structures in the brain (MacLean, P. D., Psychosom. Med. 11, 338 (1949)).
Every week male NMRI mice, weighing 20-22 g, were isolated in Makrolon cages for three weeks with diet and water ad libitum. A piece of cardboard was placed between the cages to prevent visual contact.
To test aggressiveness the mice were paired in a neutral area, a beaker (14 cm high and diameter 14 cm). A pair is considered aggressive if both the animals show clear signs of fighting within 5 min. This fighting is characterized by biting and vocalization. As soon as fighting is seen, the mice are separated and brought to their home cage. […] Animals showing no aggression are discarded. […] The test substance is administered s.c. (0.2-0.4 ml/20 g). The mice are paired 0.5 h after the injection for trials of 5 min. duration.
The ED50 -value (mg/kg) reported is the dose inhibiting aggressive behaviour among 50 percent of the pairs 0.5 hour after drug administration.

Another test concerns mice (NMRI). As to the kind of experiment: writhing test (acetic acid), analgetic properties. Format: in vivo. As to conditions: Mus musculus, sc, 20 min before acetic acid i.p.; female mice; read-out: ED50 (dose blocking the writhing behaviour in 50% of the animals). How it is done: The writhing test is a frequently used test of analgetic properties (Witkin, L. B. et al., J. Pharmacol. Exp. Ther. 133, 400 (1961)). If acetic acid (0.5%, 15 ml/kg) is injected intraperitoneally in mice (NMRI) they will without exception develop a writhing behaviour characterized by stretching their hind legs. The drugs to be tested were administered subcutaneously to 6 female mice at each dose 20 min. before the injection of the acetic acid. After 10 min. The behaviour of the mice was studied in 5 min. The ED50 value is the dose blocking the writhing behaviour in 50% of the animals during the 5 min. study period.

Test [3] has as its system male NMRI mice. As to conditions: general statement on the test; cited from earlier work.
The mark [4] stands for this setting: 1 hr after injection, read-out: ED50, spontaneous mouse-killing, 1 hr.
Where [5] appears, read: read-out: ED50, spontaneous mouse-killing, s.c., 2 hr after injection.
Where [6] appears, read: 0.5 hour after drug administration.

Regarding `CN(C)CCC=C1c2ccccc2CCc2ccccc21` [Amitriptyline], the 50% effective dose (ED50) (commonly the dose at which the effect has come halfway, by size or by number of responders) was above 10 mg/kg in test [1] (setting [4]), 6.4 mg/kg in test [1] (setting [5]) and 5 mg/kg with male NMRI mice [2] (setting [6]).

As to `CC(=O)N1CCN(CCCC(c2ccc(F)cc2)c2ccc(F)cc2)CC1` [B, 1-acetyl-4-[4,4-(di-fluorophenyl)butyl]piperazine], the 50% effective dose (ED50) was above 10 mg/kg in test [1] (setting [4]), above 10 mg/kg in test [1] (setting [5]) and 10 mg/kg in the test with male NMRI mice [2] (setting [6]). For the same compound, the “pharmacological properties compared with compounds I” value in test [1] (versus compounds I of the invention, in the tests of the application) is reported as “inferior to the compounds I of the present invention”.

`CN(C)CCCN1c2ccccc2Sc2ccc(Cl)cc21` [Chlorpromazine]: in the test with male NMRI mice [2] (0.5 h), the ED50 came out at 1.4 mg/kg.

Take `CCC(=O)N1CCN(CCCC(c2ccc(F)cc2)c2ccc(F)cc2)CC1` [Compound 1, 1-Ethylcarbonyl-4-[4,4-(di-p-fluorophenyl)butyl]-piperazine hydrochloride]: the ED50 in the test with mice (NMRI) worked out at 0.5 mg/kg; in test [1] (setting [4]), 1 mg/kg; in test [1] (setting [5]), 1.8 mg/kg; with male NMRI mice [2] (setting [6]), 2.8 mg/kg.

As for `CC(C)C(=O)N1CCN(CCCC(c2ccc(F)cc2)c2ccc(F)cc2)CC1` [Compound 2], the 50% effective dose (ED50) in the test on mice (NMRI) is 1.1 mg/kg.

`O=C(C1CC1)N1CCN(CCCC(c2ccc(F)cc2)c2ccc(F)cc2)CC1` [Compound 3]: the 50% effective dose (ED50) came out at 0.8 mg/kg with mice (NMRI), 2.6 mg/kg in test [1] (setting [4]), 3.7 mg/kg in test [1] (setting [5]) and 1.4 mg/kg with male NMRI mice [2] (setting [6]).

Take `CCC(=O)N1CC(C)N(CCC(c2ccccc2)c2ccccc2)CC1C` (stereo not shown) [Compound A1]: in the test on mice (NMRI), the 50% effective dose (ED50) stood at 4.2 mg/kg.

On to `CN1C(=O)CN=C(c2ccccc2)c2cc(Cl)ccc21` [Diazepam], for which, in the test with male NMRI mice [3], the “activity on isolation-induced aggressive behaviour” value is listed as “active”.
